Source: patent publication US12453750B2, “Fixed dose combination of cannabinoids and medical mushrooms for prevention and treatment of cancer, inflammatory or immune-mediated inflammatory diseases” (priority 2019, dated 2025)

Legend:
[1] = test system: NO secretion from RAW cells; assay: Nitric Oxide (NO) test (Griess test) on supernatants of LPS-stimulated RAW cells; assay type: cell-based, Murine; conditions: for concentration effective in inhibiting NO secretion without affecting cells' viability / Cannabinoid NO: RAW cells 24 h; for % inhibition of NO secretion: vs vehicle
Method: • a. ⅔ of total final volume of warm water for injection (42° C.) was added to the dry mushroom powder. • b. The suspension was vortexed and centrifuged (4100 rpm, RT, 5 min). • c. The supernatant containing the water-soluble fraction was separated into a clean tube. • d. 5% of total final volume of EtOH was added to the pellet and vortexed to extract ethanol-soluble fractions. Water was added q.s. ad. final volume. • e. The suspension was vortexed and centrifuged. The resulting supernatant was combined and centrifuged again to remove debris, yielding a final concentration of 50 mg/ml. • f. The resulting solution was passed through a cell strainer (40-70 micron). • g. Two additional stocks were prepared in vehicle (5% EtOH in WFI): 10 mg/ml and 2 mg/ml. • h. All Test items/Vehicle were added to the cells at 4 μL into 96 μL medium, yielding final working concentrations of: 2 mg/ml, 0.4 mg/ml, and 0.08 (in 0.2% EtOH, 4% WFI). […] Cell Medium Formulations:
(§1) • a. Cells were harvested at 80% confluence, counted and re-suspend to final concentration of 1×10^6/ml in growth medium. • b. […] Cells were incubated (37±10 C, 5% CO2) for 18-24 hrs. • d. Growth medium was removed; […] medium and 4 μL Vehicle, Test Item, and Controls were added. • e. The content of all wells was mixed by pipetting up and down three times. • f. Plates were incubated for 2 h (37±1° C., 5% CO2). • g. LPS (10 μl, final concentration of 100 ng/ml LPS) was added to all wells. • h. The content of all wells was mixed by pipetting up and down three times. • i. Plates were incubated for 24±2 h (37±1° C., 5% CO2). • j. Medium was collected from the 96-microtiter plate: 50 μl for NO secretion assay and the rest was stored in −20° C. for cytokine secretion assay.
Cell Proliferation and Viability (XTT Assay) • a. XTT reaction solution was prepared. • b. 50 μl of the XTT reaction solution was added into each well. • c. Plates were incubated in a humidified atmosphere (e.g. 37° C., 5% CO2). • d. The plates were shaken gently to evenly distribute the dye in the wells. • e. The absorbance of the samples was measure against a background control as a blank with a spectrophotometer (ELISA reader) at a wavelength of 450 nm. • f. In order to measure reference absorbance (to measure non-specific readings), a wavelength of 620 nm was used to subtract from the 450 nm measurement. • g. […] Nitric Oxide (NO) Test (Griess Test) • a. The Sulfanilamide Solution and NED Solution were allowed to equilibrate to room temperature (15-30 minutes). • b. 1 ml of a 100 μM nitrite solution was prepared by diluting the provided 0.1M Nitrite Standard 1:1,000 in culture medium. • c. 2 columns (16 wells) were designate in the non-binding 96-well plate for the Nitrite Standard reference curve. 50 μl of assay medium were dispensed into the wells in rows B-H (FIG. 1). • d. 100 μl of the 100 μM nitrite solution was added to the remaining 2 wells in row A. serial twofold dilutions (50 μl/well) were performed immediately in duplicate down the plate to generate the Nitrite Standard reference curve (100, 50, 25, 12.5, 6.25, 3.13 and 1.56 μM), discarding 50 μl from the 1.56 μM set of wells • e. 50 μl of the Sulfanilamide Solution were dispensed to all experimental samples and wells containing the dilution series for the Nitrite Standard reference curve. • f. The plate was incubated 5-10 minutes at room temperature, protected from light. • g. 50 μl of the NED Solution was dispensed to all wells. • h. The plate was incubated 5-10 minutes at room temperature, protected from light. • i. Absorbance was measured within 30 minutes in a plate reader with a filter between 520 nm and 550 nm. • j.

[2] = test system: PANC-1 cells; assay: Viability assay (XTT) of PANC-1 cells; assay type: cell-based, Human; conditions: 72 hours; for % viability at the potent concentrations: CBD 40-100 μM, THC 100-375 μM, no dose response
Method: (§2) • a. PANC-1 cells (Human Pancreatic Cancer cells) (American Type Culture Collection, Rockville, MD, USA). • b. EGL-1 cells (Human extrahepatic cholangio carcinoma) Cell Growth:
Growth medium for PANC-1/EGL-1 cells: Dulbecco's Modified Eagle Medium (DMEM) high glucose supplemented with 10% Fetal Bovine Serum (FBS), 2 mM L-Glutamine, and 1% Penicillin-Streptomycin solution (PS).
Assay medium for PANC-1: Assay medium contained only 1% FBS.
(§3) • a. Cells were harvest at 80% confluence, counted and re-suspend to final concentration of 75×10^3/ml (PANC-1) or 50×103 (EGL-1) in growth medium. • b. Panc-1 cell suspension was seeded in 96-well microtiter plate at 7500 cells/100 μl/well and EGL-1 cell suspension was seeded in 96-well microtiter plate at 5000 cells/l100p/well. • c. Cells were incubated (37±10 C, 5% CO2) for 18-24 hrs. • d. Growth medium was removed; 80 μL assay medium and 20 μL Vehicle, Test Item, and Controls were added. […] The content of all wells was mixed by pipetting up and down three times. • f. Plates were incubated for 72±2 h (37±1° C., 5% CO2). • g. The medium on all plates was replaced with 100 μl culture medium. XTT Assay • a. XTT reaction solution was prepared. • b. 50 μl of the XTT reaction solution was added into each well. • c. Plates were incubated in a humidified atmosphere (e.g. 37° C., 5% CO2). • d. The plates were shaken gently to evenly distribute the dye in the wells. • e. The absorbance of the samples was measure against a background control as a blank with a spectrophotometer (ELISA reader) at a wavelength of 450 nm. • f. In order to measure reference absorbance (to measure non-specific readings), a wavelength of 620 nm was used to subtract from the 450 nm measurement. • g. The idle absorbance of the cells was 0.5-1.5 in all wells.

[3] = test system: IL-6 secretion from RAW cells; assay: IL-6 secretion, Multiplex analysis of medium of LPS-stimulated RAW cells; assay type: cell-based, Murine; conditions: CBD (15 μM)
Method: as §1
(§4) Cytokine Secretion • a. Reishi, Cordyceps M, Agaricus blazei, and Cordyceps Cs-4 were incubated with […] at 0.08-2 mg/ml for 24 hours. • b. Medium from cells was collected for Multiplex analysis (CCL3/MIP1α, IL-6, IL-1β, TNFα, IL-10 and IL-6) in duplicates. • c.
(§5) Cytokine Secretion • a. CBD (15 μM) and THC (20 μM) were incubated with […]. • b. Medium from cells was collected for Multiplex analysis (CCL3/MIP1α, IL-6, IL-1β, TNFα, IL-10 and IL-6) in duplicates. • c. […] IL-6 secretion: • i. […] TNFα secretion: • i.
(§6) Cytokine Secretion • a. […]

[4] = test system: TNFα secretion from RAW cells; assay: TNFα secretion, Multiplex analysis of medium of LPS-stimulated RAW cells; assay type: cell-based, Murine; conditions: CBD (15 μM), THC (20 μM)
Method: as §1, §4, §5, §6

[5] = test system: EGL-1 cells; assay: Viability assay (XTT) of EGL-1 cells; assay type: cell-based, Human; conditions: 72 hours; for % viability at the potent concentrations: CBD 40-100 μM, THC 100-375 μM
Method: as §2
Growth medium for EGL-1 cells: RPMI-1640 medium supplemented with 10% Fetal Bovine Serum (FBS), 2 mM L-Glutamine, and 1% Penicillin-Streptomycin solution (PS).
Assay medium for EGL-1: Assay medium contained only 1% FBS in DMEM low glucose (1 g/L)
as §3

[6] = test system: cancer cells; conditions: D9-THC (4-10 µM); cited from earlier work
[7] = test system: U373-MG (glioblastoma) cells; conditions: D9-THC at 100-300 nM; cited from earlier work
[8] = test system: NCl-H292 (lung cancer) cells; conditions: D9-THC at 100-300 nM; cited from earlier work
[9] = Mus musculus, read-out: % inhibition of NO secretion

SMILES | NO ([1]; CBD 15 μM alone) | inhibition at 15 µM [1, 9] | concentration effective in inhibiting NO secretion without affecting cells' viability [1] | Cannabinoid NO ([1]; cannabinoid 15 μM) | % inhibition of NO secretion ([1]; cannabinoid 15 μM) | Cannabinoid NO ([1]; cannabinoid 20 μM) | % inhibition of NO secretion ([1]; cannabinoid 20 μM) | concentration at which potent (viability) [2] | % viability at the potent concentrations [2] | effect on IL-6 secretion (in words) [3] | effect on TNFα secretion (in words) [4] | concentration at which potent (viability) [5] | % viability at the potent concentrations [5] | number of apoptotic cells [6] | inhibition at 20 µM [1, 9] | NO ([1]; THC 20 μM alone) | increase in the proliferation rate [7] | increase in the proliferation rate [8]
C=C(C)[C@@H]1CCC(C)=C[C@H]1c1c(O)cc(CCCCC)cc1O [CBD, cannabidiol] | 6.67 µM | 40.2% | 15 to 20 µM | 11.8 µM | 38.6% | 5.07 µM | 73.6% | 40 to 100 µM | 35% | did not affect IL-6 secretion | did not affect TNFα secretion | 40 to 100 µM | 15-30% | – | – | – | – | –
CCCCCc1cc(O)c2c(c1)OC(C)(C)[C@@H]1CCC(C)=C[C@@H]21 [THC, Δ^9-tetrahydrocannabinol] | – | – | 20 µM | – | – | 8.77 µM | 54.4% | 100 to 375 µM | 35% | – | did not affect TNFα secretion | 100 to 375 µM | 15% | 30-80% | 66.7% | 3.72 µM | 2 fold | 1.2 fold
